Measurements from patent US10544143B2, “4-azaindole compounds” (BRISTOL-MYERS SQUIBB COMPANY, priority 2017, dated 2020).

Legend:
human TLR7 = human TLR7 (Homo sapiens (Human), UniProt Q9NYK1); experiment: TLR7 inhibition reporter assay (HEK-Blue SEAP); assay type: cell-based; settings: HEK-Blue cells overexpressing human TLR7, gardiquimod 7.5 μM stimulation, SEAP reporter
human TLR8 = human TLR8 (Homo sapiens (Human), UniProt Q9NR97); experiment: TLR8 inhibition reporter assay (HEK-Blue SEAP); settings: read-out: TLR8 IC50; HEK-Blue cells overexpressing human TLR8, R848 15.9 μM stimulation, SEAP reporter;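 also: SEAP driven by IFN-β minimal promoter carrying NF-κB and AP-1 sites, compounds dosed 0.05 nM to 50 µM for 22 h, inhibition scaled between agonist-plus-DMSO and reference-inhibitor wells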
human TLR8, sequence (Q9NR97 27-1041): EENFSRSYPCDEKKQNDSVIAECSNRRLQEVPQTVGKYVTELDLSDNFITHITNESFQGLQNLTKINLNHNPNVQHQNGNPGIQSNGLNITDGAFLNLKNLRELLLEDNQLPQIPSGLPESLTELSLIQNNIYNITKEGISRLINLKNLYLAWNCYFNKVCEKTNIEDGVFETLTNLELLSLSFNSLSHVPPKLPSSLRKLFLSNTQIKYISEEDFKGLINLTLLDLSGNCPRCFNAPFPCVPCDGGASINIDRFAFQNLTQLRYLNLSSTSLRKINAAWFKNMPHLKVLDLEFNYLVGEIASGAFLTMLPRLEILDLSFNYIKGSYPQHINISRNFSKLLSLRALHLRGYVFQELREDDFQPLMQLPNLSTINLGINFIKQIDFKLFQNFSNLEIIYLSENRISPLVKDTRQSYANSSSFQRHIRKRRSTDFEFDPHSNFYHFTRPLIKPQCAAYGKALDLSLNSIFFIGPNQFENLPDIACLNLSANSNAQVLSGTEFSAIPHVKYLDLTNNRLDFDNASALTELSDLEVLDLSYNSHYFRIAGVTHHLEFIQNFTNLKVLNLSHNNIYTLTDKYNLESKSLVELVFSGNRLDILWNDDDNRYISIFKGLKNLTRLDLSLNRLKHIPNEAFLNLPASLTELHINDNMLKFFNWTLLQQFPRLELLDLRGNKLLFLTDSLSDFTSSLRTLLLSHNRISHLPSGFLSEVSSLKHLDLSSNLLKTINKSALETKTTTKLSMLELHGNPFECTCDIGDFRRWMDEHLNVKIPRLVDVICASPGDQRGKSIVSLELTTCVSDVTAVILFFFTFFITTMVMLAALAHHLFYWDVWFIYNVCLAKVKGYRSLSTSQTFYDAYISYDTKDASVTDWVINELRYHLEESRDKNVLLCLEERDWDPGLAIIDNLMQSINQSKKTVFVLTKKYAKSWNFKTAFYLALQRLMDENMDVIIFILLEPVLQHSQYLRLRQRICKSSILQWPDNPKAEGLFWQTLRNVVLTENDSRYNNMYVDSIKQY

human TLR9 = human TLR9 (Homo sapiens (Human), UniProt Q9NR96); experiment: TLR9 inhibition reporter assay (HEK-Blue SEAP); settings: read-out: TLR9 IC50; HEK-Blue cells overexpressing human TLR9, ODN2006 5 nM stimulation, SEAP reporter;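 also: SEAP driven by an IFN-β minimal promoter with NF-κB and AP-1 sites, read after 22 h, compounds dosed 0.05 nM–50 µM, inhibition scaled between agonist plus DMSO and reference-inhibitor wells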
human TLR9, sequence (Q9NR96 26-1032): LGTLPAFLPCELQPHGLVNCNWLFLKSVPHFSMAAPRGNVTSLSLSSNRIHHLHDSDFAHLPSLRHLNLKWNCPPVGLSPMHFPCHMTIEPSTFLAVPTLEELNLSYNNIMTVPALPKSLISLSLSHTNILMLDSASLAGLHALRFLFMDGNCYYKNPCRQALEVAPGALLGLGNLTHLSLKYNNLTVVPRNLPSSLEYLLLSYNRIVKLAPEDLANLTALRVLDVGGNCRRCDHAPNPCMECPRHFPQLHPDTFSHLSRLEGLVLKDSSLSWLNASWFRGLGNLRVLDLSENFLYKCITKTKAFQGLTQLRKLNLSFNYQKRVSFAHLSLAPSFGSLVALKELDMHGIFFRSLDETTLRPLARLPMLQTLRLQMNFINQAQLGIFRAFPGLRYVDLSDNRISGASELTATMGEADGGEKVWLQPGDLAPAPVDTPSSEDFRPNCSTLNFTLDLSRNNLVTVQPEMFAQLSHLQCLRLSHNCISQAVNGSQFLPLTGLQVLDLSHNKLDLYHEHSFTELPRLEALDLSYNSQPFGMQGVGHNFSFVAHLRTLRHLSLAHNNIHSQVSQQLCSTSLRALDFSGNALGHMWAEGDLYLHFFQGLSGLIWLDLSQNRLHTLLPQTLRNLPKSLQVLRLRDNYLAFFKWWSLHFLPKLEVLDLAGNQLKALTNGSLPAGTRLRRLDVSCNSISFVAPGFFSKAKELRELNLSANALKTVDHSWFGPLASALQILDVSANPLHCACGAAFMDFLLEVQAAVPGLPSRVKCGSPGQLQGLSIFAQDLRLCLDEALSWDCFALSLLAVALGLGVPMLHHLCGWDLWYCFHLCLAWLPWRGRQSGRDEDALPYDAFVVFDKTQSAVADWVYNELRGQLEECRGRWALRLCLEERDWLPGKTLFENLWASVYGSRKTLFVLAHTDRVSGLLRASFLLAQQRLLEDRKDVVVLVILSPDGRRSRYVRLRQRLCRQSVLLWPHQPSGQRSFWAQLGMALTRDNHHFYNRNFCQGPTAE

human TLR7, sequence (Q9NYK1 27-1049): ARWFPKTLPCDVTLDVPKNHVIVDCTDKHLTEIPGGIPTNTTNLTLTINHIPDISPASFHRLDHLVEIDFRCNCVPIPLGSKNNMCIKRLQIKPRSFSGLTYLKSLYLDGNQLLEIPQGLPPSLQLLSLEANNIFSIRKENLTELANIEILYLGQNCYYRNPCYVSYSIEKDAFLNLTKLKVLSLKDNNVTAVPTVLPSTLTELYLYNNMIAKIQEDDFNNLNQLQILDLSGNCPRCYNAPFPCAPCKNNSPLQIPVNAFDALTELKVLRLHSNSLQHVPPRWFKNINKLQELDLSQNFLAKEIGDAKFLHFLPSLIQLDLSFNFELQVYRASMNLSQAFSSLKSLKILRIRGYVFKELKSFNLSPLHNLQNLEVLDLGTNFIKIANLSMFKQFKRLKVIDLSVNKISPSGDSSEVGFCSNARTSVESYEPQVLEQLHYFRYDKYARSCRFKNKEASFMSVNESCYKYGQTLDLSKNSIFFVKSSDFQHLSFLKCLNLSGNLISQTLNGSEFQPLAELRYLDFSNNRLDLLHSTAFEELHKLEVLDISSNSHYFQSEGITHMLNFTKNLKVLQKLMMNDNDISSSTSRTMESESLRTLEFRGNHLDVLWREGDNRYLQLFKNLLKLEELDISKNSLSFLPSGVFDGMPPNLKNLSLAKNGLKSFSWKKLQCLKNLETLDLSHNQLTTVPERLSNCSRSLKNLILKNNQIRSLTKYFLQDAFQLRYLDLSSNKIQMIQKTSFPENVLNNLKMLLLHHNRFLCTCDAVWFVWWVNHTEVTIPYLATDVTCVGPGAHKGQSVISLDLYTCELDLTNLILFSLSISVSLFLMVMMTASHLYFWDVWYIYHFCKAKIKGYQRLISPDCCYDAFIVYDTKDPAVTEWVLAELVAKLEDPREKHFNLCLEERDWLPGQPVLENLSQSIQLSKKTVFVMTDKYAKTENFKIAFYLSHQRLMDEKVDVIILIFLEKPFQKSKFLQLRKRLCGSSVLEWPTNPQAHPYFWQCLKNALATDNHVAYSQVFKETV

| SMILES | IC50 (human TLR7) [µM] | IC50 (human TLR8) [µM] | IC50 (human TLR9) [µM] |
| --- | --- | --- | --- |
| CNC1CCC(c2ccc3[nH]c(-c4cn(CCS(C)(=O)=O)c5ncccc45)c(C(C)C)c3n2)CC1 (stereo not drawn) [Example 264] | 0.055 | 0.042 | 0.255 |
| CNC1CCC(c2ccc3[nH]c(-c4cn(CCS(C)(=O)=O)c5ncccc45)c(C(C)C)c3n2)CC1 (stereo not drawn) [Example 269] | 0.223 | 0.088 | 0.67 |
| CC(C)c1c(-c2cn(CC#N)c3ncccc23)[nH]c2ccc(C3CCC(NCC(=O)N(C)C)CC3)nc12 (stereo not drawn) [Example 272] | 0.076 | 0.05 | 0.398 |
| CC(C)c1c(-c2cn(CC#N)c3ncccc23)[nH]c2ccc(C3CCC(NCC(=O)N(C)C)CC3)nc12 (stereo not drawn) [Example 276] | 0.0089 | 0.009 | 0.309 |
| COc1cc(-c2[nH]c3ccc(C4CCC(N(CC#N)C5COC5)CC4)nc3c2C(C)C)cn2ncnc12 (stereo not drawn) [Example 277] | 0.0004 | 0.0016 | 1.38 |
| Cc1cc(-c2[nH]c3ccc(C4CCC(NC5COC5)CC4)nc3c2C(C)C)cn2ncnc12 (stereo not drawn) [Example 279] | 0.00031 | 0.0014 | 1.82 |
| Cc1cc(-c2[nH]c3ccc(C4CCC(NCC(=O)N(C)C)CC4)nc3c2C(C)C)cn2ncnc12 (stereo not drawn) [Example 280] | 0.0011 | 0.0072 | 1.27 |
| Cc1cc(-c2[nH]c3ccc(C4CCC(N5CC6(COC6)C5)CC4)nc3c2C(C)C)cn2ncnc12 (stereo not drawn) [Example 281] | 0.00048 | 0.0017 | 0.88 |
| Cc1cc(-c2[nH]c3ccc(C4CCC(NC5COC5)CC4)nc3c2C(C)C)cc(C)n1 (stereo not drawn) [Example 282] | 0.00032 | 0.00091 | 0.661 |
| Cc1cc(-c2[nH]c3ccc(C4CCC(N5CC6(COC6)C5)CC4)nc3c2C(C)C)cc(C)n1 (stereo not drawn) [Example 283] | 0.00092 | 0.0014 | 0.298 |
| Cc1cc(-c2[nH]c3ccc(C4CCC(NC5COC5)CC4)nc3c2C(C)C)cn2ncnc12 (stereo not drawn) [Example 284] | 0.003 | 0.015 | 4.04 |
| Cc1cc(-c2[nH]c3ccc(C4CCC(N5CC6(COC6)C5)CC4)nc3c2C(C)C)cc(C)n1 (stereo not drawn) [Example 286] | 0.0052 | 0.0092 | 1.57 |
| Cc1cc(-c2[nH]c3ccc(C4CCC(NC5COC5)CC4)nc3c2C(C)C)cc(C)n1 (stereo not drawn) [Example 287] | 0.025 | 0.033 | 2.36 |
| Cc1cc(-c2[nH]c3ccc(C4CCC(N5CC6(COC6)C5)CC4)nc3c2C(C)C)cn2ncnc12 (stereo not drawn) [Example 288] | 0.028 | 0.114 | 6.45 |
| CNC1CCC(c2ccc3[nH]c(-c4cn(C)c5ncncc45)c(C(C)C)c3n2)CC1 (stereo not drawn) [Example 296] | 0.00059 | 0.0068 | 0.6 |
| CNC1CCC(c2ccc3[nH]c(-c4cn(C)c5nccnc45)c(C(C)C)c3n2)CC1 (stereo not drawn) [Example 297] | 0.0084 | 0.015 | 0.885 |
| CNC1CCC(c2ccc3[nH]c(-c4cn(C)c5nccnc45)c(C(C)C)c3n2)CC1 (stereo not drawn) [Example 300] | 0.048 | 0.286 | 9.05 |
| CNC1CCC(c2ccc3[nH]c(-c4cn(C)c5ncncc45)c(C(C)C)c3n2)CC1 (stereo not drawn) [Example 301] | 0.002 | 0.042 | 4.09 |
| CC(C)c1c(-c2cn(C)c3ncncc23)[nH]c2ccc(C3CCC(NCC(=O)N(C)C)CC3)nc12 (stereo not drawn) [Example 303] | 0.00055 | 0.0069 | 1.23 |
| CC(C)c1c(-c2cc(CO)c3ncnn3c2)[nH]c2ccc(C3CCC(N(C)Cc4ccc(F)cc4)CC3)nc12 (stereo not drawn) [Example 306] | 0.013 | 0.061 | 10.1 |
| CC(C)c1c(-c2cc(CO)c3ncnn3c2)[nH]c2ccc(C3CCC(NCCC(F)(F)F)CC3)nc12 (stereo not drawn) [Example 307] | 0.00086 | 0.0027 | 2.98 |
| CC(C)c1c(-c2cc(CO)c3ncnn3c2)[nH]c2ccc(C3CCC(NCCC(F)(F)F)CC3)nc12 (stereo not drawn) [Example 308] | 0.011 | 0.011 | 3.97 |
| COc1cc(-c2[nH]c3cc(C)c(C4CCC(NC5COC5)CC4)nc3c2C(C)C)cn2ncnc12 (stereo not drawn) [Example 309] | 0.00031 | 0.0046 | 0.268 |
| COc1cc(-c2[nH]c3cc(C)c(C4CCC(NC5(C)COC5)CC4)nc3c2C(C)C)cn2ncnc12 (stereo not drawn) [Example 310] | 0.00039 | 0.0041 | 1.78 |
| COc1cc(-c2[nH]c3cc(C)c(C4CCC(NC5(C)COC5)CC4)nc3c2C(C)C)cn2ncnc12 (stereo not drawn) [Example 311] | 0.0028 | 0.044 | 2.02 |
| COc1cc(-c2[nH]c3cc(C)c(C4CCC(NCC5(C)COC5)CC4)nc3c2C(C)C)cn2ncnc12 (stereo not drawn) [Example 312] | 0.00026 | 0.0016 | 0.577 |
| CCN(C)C1CCC(c2nc3c(C(C)C)c(-c4cc(OC)c5ncnn5c4)[nH]c3cc2C)CC1 (stereo not drawn) [Example 313] | 0.00021 | 0.007 | 1.2 |
| COc1cc(-c2[nH]c3cc(C)c(C4CCC(NCC(C)(C)O)CC4)nc3c2C(C)C)cn2ncnc12 (stereo not drawn) [Example 314] | 0.0024 | 0.047 | 5.51 |
| COc1cc(-c2[nH]c3cc(C)c(C4CCC(NCC5(C)COC5)CC4)nc3c2C(C)C)cn2ncnc12 (stereo not drawn) [Example 315] | 0.0018 | 0.029 | 5.22 |
| COc1cc(-c2[nH]c3cc(C)c(C4CCC(NC5COC5)CC4)nc3c2C(C)C)cn2ncnc12 (stereo not drawn) [Example 316] | 0.0014 | 0.041 | 3.02 |

Next, values leading:

| IC50 (human TLR7) [µM] | IC50 (human TLR8) [µM] | IC50 (human TLR9) [µM] | SMILES |
| --- | --- | --- | --- |
| 0.00059 | 0.00091 | 0.392 | CC(C)c1c(-c2cn(C)c3ncccc23)[nH]c2ccc(C3CCC(NC4CCOCC4)CC3)nc12 (stereo not drawn) [Example 265] |
| 0.045 | 0.013 | 0.322 | CC(C)c1c(-c2cn(CCS(C)(=O)=O)c3ncccc23)[nH]c2ccc(C3CCC(NC4CCOCC4)CC3)nc12 (stereo not drawn) [Example 266] |
| 0.0019 | 0.0026 | 0.453 | CC(C)c1c(-c2cn(C)c3ncccc23)[nH]c2ccc(C3CCC(NC4CCOCC4)CC3)nc12 (stereo not drawn) [Example 267] |
| 0.094 | 0.032 | 0.578 | CC(C)c1c(-c2cn(CC#N)c3ncccc23)[nH]c2ccc(C3CCC(NC4CCOCC4)CC3)nc12 (stereo not drawn) [Example 268] |
| 0.038 | 0.028 | 0.322 | CNC1CCC(c2ccc3[nH]c(-c4cn(CC#N)c5ncccc45)c(C(C)C)c3n2)CC1 (stereo not drawn) [Example 270] |
| 0.12 | 0.04 | 0.228 | CC(C)c1c(-c2cn(CCS(C)(=O)=O)c3ncccc23)[nH]c2ccc(C3CCC(NC4CCCOC4)CC3)nc12 (stereo not drawn) [Example 271] |
| 0.075 | 0.066 | 1.11 | CC(C)c1c(-c2cn(CC#N)c3ncccc23)[nH]c2ccc(C3CCC(NCCS(C)(=O)=O)CC3)nc12 (stereo not drawn) [Example 273] |
| 0.0085 | 0.0037 | 0.474 | CC(C)c1c(-c2cn(CC#N)c3ncccc23)[nH]c2ccc(C3CCC(NC4CCCOC4)CC3)nc12 (stereo not drawn) [Example 274] |
| 0.014 | 0.0085 | 0.684 | CC(C)c1c(-c2cn(CC#N)c3ncccc23)[nH]c2ccc(C3CCC(NCCS(C)(=O)=O)CC3)nc12 (stereo not drawn) [Example 275] |
| 0.0015 | 0.0012 | 0.837 | CC(C)c1c(-c2cn(C)c3ncccc23)[nH]c2ccc(C3CCC(NCC(C)(C)S(C)(=O)=O)CC3)nc12 (stereo not drawn) [Example 278] |
| 0.0036 | 0.0055 | 2.31 | CC(C)c1c(-c2cn(C)c3ncccc23)[nH]c2ccc(C3CCC(NCC(C)(C)S(C)(=O)=O)CC3)nc12 (stereo not drawn) [Example 285] |
| 0.0035 | 0.011 | 0.967 | CCn1cc(-c2[nH]c3ccc(C4CCC(NC5CCOCC5)CC4)nc3c2C(C)C)c2cccnc21 (stereo not drawn) [Example 289] |
| 0.0021 | 0.0063 | 0.425 | CCn1cc(-c2[nH]c3ccc(C4CCC(N5CC6(COC6)C5)CC4)nc3c2C(C)C)c2cccnc21 (stereo not drawn) [Example 290] |
| 0.0026 | 0.011 | 0.735 | CCn1cc(-c2[nH]c3ccc(C4CCC(NCC(=O)N(C)C)CC4)nc3c2C(C)C)c2cccnc21 (stereo not drawn) [Example 291] |
| 0.099 | 0.127 | 1.61 | CCn1cc(-c2[nH]c3ccc(C4CCC(NC5CCOCC5)CC4)nc3c2C(C)C)c2cccnc21 (stereo not drawn) [Example 292] |
| 0.075 | 0.208 | 5.64 | CCn1cc(-c2[nH]c3ccc(C4CCC(O)CC4)nc3c2C(C)C)c2cccnc21 (stereo not drawn) [Example 293] |
| 0.085 | 0.174 | 2.27 | CCn1cc(-c2[nH]c3ccc(C4CCC(N5CC6(COC6)C5)CC4)nc3c2C(C)C)c2cccnc21 (stereo not drawn) [Example 294] |
| 0.011 | 0.011 | 0.883 | CNC1CCC(c2ccc3[nH]c(-c4cn(CCO)c5ncccc45)c(C(C)C)c3n2)CC1 (stereo not drawn) [Example 295] |
| 0.01 | 0.006 | 0.68 | CNC1CCC(c2ccc3[nH]c(-c4cn(CCO)c5ncccc45)c(C(C)C)c3n2)CC1 (stereo not drawn) [Example 299] |
| 0.00074 | 0.0049 | 0.739 | CNC1CCC(c2ccc3[nH]c(-c4cn(C)c5ncccc45)c(C(C)C)c3n2)CC1 (stereo not drawn) [Example 302] |
| 0.00053 | 0.0018 | 1.07 | CC(C)c1c(-c2cn(C)c3ncncc23)[nH]c2ccc(C3CCC(NCCS(C)(=O)=O)CC3)nc12 (stereo not drawn) [Example 304] |
| 0.004 | 0.016 | 8.24 | CC(C)c1c(-c2cn(C)c3ncncc23)[nH]c2ccc(C3CCC(NC4CCOCC4)CC3)nc12 (stereo not drawn) [Example 305] |
